The values below come from patent publication US7041808B2 (priority 2001, dated 2006).

Some test systems named below: Escherichia coli; Rhizoctonia solani Kuhn; Septoria tritici; Staphylococcus aureus.
Holding throughout (format): cell-based
Another test deals with Phytophthora infestance. Particulars: V8 juice medium, 20° C., 50 μg protein spotted.
The subject of the next test is Rhizoctonia solani. Kind of test: Anti-filamentous fungal activity, inhibitory circle on agar plate. The conditions noted are these: 1 μl sample spotted, culture 24 hours at 25° C. How it is done: Rhizoctonia solani microorganisms were cultured in a potato dextrose (PD) medium (Difco) at 25° C. for 5 days, and then their hyphae were cut thin with a homogenizer. From the resulting suspension of thin hyphae, a clump of hyphae was removed, and the hyphae were recovered by centrifugation and adjusted to a density of 10^5 hyphae/ml with PD medium. A PDA medium was added in a solution form to 250 μl hypha suspension to form 5 ml suspension which was then spread on a Petri dish (diameter, 8.4 cm). After the medium was solidified, 1 μl sample for activity evaluation was spotted thereon followed by culture for 24 hours at 25° C., and the size of an inhibitory circle formed around the spot was measured.
The above-described method of evaluating anti-Rhizoctonia solani activity was used to evaluate the activity of the 4 synthetic proteins.

A further test concerns Pyricularia oryzae. Particulars: 50 μg protein spotted.

Bridges are numbered along the chain shown (N, C = ends). Where no end group is shown, it is not given here.

As for “SP4080: protein consisting of 36 amino acid residues, SEQ ID NO:7, from Coconut rhinoceros beetle; chemically synthesized with disulfide linkages (ELPKLPDDKVLIRSRSNCPKGKVWNGFDCKSPFAFS; disulfide 18-29 (inferred))”, the Inhibitory circle entry in the test with Escherichia coli is given as “⊚ (key: ⊚: Inhibitory circle of 4 mm or more; ◯: Inhibitory circle of less than 4 mm; X: No activity)”; in the test on Rhizoctonia solani Kuhn it was “⊚ (key: ⊚: Inhibitory circle of 4 mm or more; ◯: Inhibitory circle of less than 4 mm; X: No activity)”; in the test on Septoria tritici, “◯ (key: ⊚: Inhibitory circle of 4 mm or more; ◯: Inhibitory circle of less than 4 mm; X: No activity)”; in the test on Staphylococcus aureus, “⊚ (key: ⊚: Inhibitory circle of 4 mm or more; ◯: Inhibitory circle of less than 4 mm; X: No activity)”; in the test on Phytophthora infestance, “◯ (Inhibitory circle of less than 4 mm)”; in the test on Rhizoctonia solani, “⊚ (Inhibitory circle of 4 mm or more)”. For the same substance, the Inhibitory circle result in the test on Pyricularia oryzae is “◯ (Inhibitory circle of less than 4 mm)”.

With “SP4266: protein consisting of 38 amino acid residues in total represented by SEQ ID NO:8; chemically synthesized (DAELPKLPDDKVLIRSRSNCPKGKVWNGFDCKSPFAFS; Oryctes rhinoceros)”, the Inhibitory circle result in the test with Rhizoctonia solani is “⊚ (Inhibitory circle of 4 mm or more)”.

As to “SP4337: protein consisting of 38 amino acid residues in total represented by SEQ ID NO:9; chemically synthesized (ELPKLPDDKVLIRSRSNCPKGKVWNGFDCKSPFAFSKK; Oryctes rhinoceros)”, in the test with Rhizoctonia solani, the Inhibitory circle entry was “⊚ (Inhibitory circle of 4 mm or more)”.

In the case of “SP4523: protein consisting of 40 amino acid residues in total represented by SEQ ID NO:10; chemically synthesized (DAELPKLPDDKVLIRSRSNCPKGKVWNGFDCKSPFAFSKK; Oryctes rhinoceros)”, the Inhibitory circle entry with Rhizoctonia solani is listed as “⊚ (Inhibitory circle of 4 mm or more)”.
